{"source": "patent US5164188A", "about": "“Biodegradable ocular implants” (Visionex, Inc., priority 1989, dated 1992)", "key": {"[1]": {"assay": "in vivo", "details": "rabbit"}, "[2]": {"details": "rabbit, in vivo"}, "[3]": {"details": "rabbit, in vivo", "remark": "listed apart in the source"}, "[4]": {"assay": "in vivo", "details": "rabbit", "remark": "listed apart in the source"}, "[5]": {"assay": "MTX level in eye, microcapsules in pars plana (EMIT)", "type": "in vivo, rabbit", "details": "for Drug level, LE PC: left eye, posterior chamber, microcapsule in one eye only"}, "[6]": {"assay": "MTX level in eye, plaque in pars plana (EMIT)", "type": "in vivo, rabbit", "details": "for Drug level, LE PC: left eye, posterior chamber, plaque in one eye only"}, "[7]": {"tested_on": "VX2 adenocarcinoma", "details": "in vitro; cited from earlier work"}}, "note": "Like-named read-outs stand apart in the source and are kept apart here."}
{"compound": "C[C@]12CCC(=O)C=C1CC[C@@H]1[C@@H]2[C@@H](O)C[C@@]2(C)[C@H]1CC[C@]2(O)C(=O)CO", "note": "[Hydrocortisone, hydrocortisone]", "values": [{"measurement": "concentration at 720 h", "setting": "[1]", "value": 1300, "unit": "ng/mL"}, {"measurement": "concentration at 1440 h", "setting": "[1]", "value": 1900, "unit": "ng/mL"}, {"measurement": "concentration at 2160 h", "setting": "[1]", "value": 2300, "unit": "ng/mL"}, {"measurement": "Drug level, RE PC", "setting": "[2]; 43200 min", "value": 0, "unit": "ng/mL"}, {"measurement": "Drug level, RE PC", "setting": "[2]; 86400 min", "value": 0, "unit": "ng/mL"}, {"measurement": "Drug level, RE PC", "setting": "[2]; 129600 min", "value": 0, "unit": "ng/mL"}, {"measurement": "Drug level, RE PC", "setting": "[3]; 10080 min", "value": 0, "unit": "ng/mL"}, {"measurement": "Drug level, RE PC", "setting": "[3]; 20160 min", "value": 0, "unit": "ng/mL"}, {"measurement": "Drug level, RE PC", "setting": "[3]; 30240 min", "value": 0, "unit": "ng/mL"}, {"measurement": "Drug level, RE PC", "setting": "[3]; 40320 min", "value": 0, "unit": "ng/mL"}, {"measurement": "Drug level, RE PC", "setting": "[3]; 50400 min", "value": 0, "unit": "ng/mL"}, {"measurement": "Drug level, RE PC", "setting": "[3]; 60480 min", "value": 0, "unit": "ng/mL"}, {"measurement": "concentration at 168 h", "setting": "[4]", "value": 1300, "unit": "ng/mL"}, {"measurement": "concentration at 336 h", "setting": "[4]", "value": 2000, "unit": "ng/mL"}, {"measurement": "concentration at 504 h", "setting": "[4]", "value": 2400, "unit": "ng/mL"}, {"measurement": "concentration at 672 h", "setting": "[4]", "value": 1100, "unit": "ng/mL"}, {"measurement": "concentration at 840 h", "setting": "[4]", "value": 900, "unit": "ng/mL"}, {"measurement": "concentration at 1008 h", "setting": "[4]", "value": 2000, "unit": "ng/mL"}]}
{"compound": "CN(Cc1cnc2nc(N)nc(N)c2n1)c1ccc(C(=O)N[C@@H](CCC(=O)O)C(=O)O)cc1", "note": "[MTX, methotrexate]", "values": [{"measurement": "Drug level, LE PC", "setting": "[5]; 1 wk", "value": 0, "unit": "ng/mL"}, {"measurement": "Drug level, LE PC", "setting": "[5]; 2 wks", "value": 0, "unit": "ng/mL"}, {"measurement": "Drug level, LE PC", "setting": "[5]; 3 wks", "value": 0, "unit": "ng/mL"}, {"measurement": "Drug level, LE PC", "setting": "[5]; 4 wks", "value": 0, "unit": "ng/mL"}, {"measurement": "Drug level, LE PC", "setting": "[5]; 5 wks", "value": 0, "unit": "ng/mL"}, {"measurement": "Drug level, LE PC", "setting": "[5]; 6 wks", "value": 0, "unit": "ng/mL"}, {"measurement": "concentration at 168 h", "setting": "[5]; rabbit, posterior chamber of eye, right eye, 1 wk, microcapsule, read-out: Drug level, RE PC", "value": 800, "unit": "ng/mL"}, {"measurement": "concentration at 336 h", "setting": "[5]; rabbit, posterior chamber of eye, right eye, 2 wks, microcapsule, read-out: Drug level, RE PC", "value": 1200, "unit": "ng/mL"}, {"measurement": "concentration at 504 h", "setting": "[5]; rabbit, posterior chamber of eye, right eye, 3 wks, microcapsule, read-out: Drug level, RE PC", "value": 1400, "unit": "ng/mL"}, {"measurement": "concentration at 672 h", "setting": "[5]; rabbit, posterior chamber of eye, right eye, 4 wks, microcapsule, read-out: Drug level, RE PC", "value": 700, "unit": "ng/mL"}, {"measurement": "concentration at 840 h", "setting": "[5]; rabbit, posterior chamber of eye, right eye, 5 wks, microcapsule, read-out: Drug level, RE PC", "value": 1000, "unit": "ng/mL"}, {"measurement": "concentration at 1008 h", "setting": "[5]; rabbit, posterior chamber of eye, right eye, 6 wks, microcapsule, read-out: Drug level, RE PC", "value": 900, "unit": "ng/mL"}, {"measurement": "Drug level, LE PC", "setting": "[6]; 1 mo", "value": 0, "unit": "ng/mL"}, {"measurement": "Drug level, LE PC", "setting": "[6]; 2 mos", "value": 0, "unit": "ng/mL"}, {"measurement": "Drug level, LE PC", "setting": "[6]; 3 mos", "value": 0, "unit": "ng/mL"}, {"measurement": "concentration at 720 h", "setting": "[6]; rabbit, posterior chamber of eye, right eye, 1 mo, plaque, read-out: Drug level, RE PC", "value": 1500, "unit": "ng/mL"}, {"measurement": "concentration at 1440 h", "setting": "[6]; rabbit, posterior chamber of eye, right eye, 2 mos, plaque, read-out: Drug level, RE PC", "value": 4000, "unit": "ng/mL"}, {"measurement": "concentration at 2160 h", "setting": "[6]; rabbit, posterior chamber of eye, right eye, 3 mos, plaque, read-out: Drug level, RE PC", "value": 2000, "unit": "ng/mL"}]}
{"compound": "CC[C@]1(O)C[C@H]2CN(CCc3c([nH]c4ccccc34)[C@@](C(=O)OC)(c3cc4c(cc3OC)N(C=O)[C@H]3[C@@](O)(C(=O)OC)[C@H](OC(C)=O)[C@]5(CC)C=CCN6CC[C@]43[C@@H]65)C2)C1", "note": "[Vincristine]", "values": [{"measurement": "IC50", "setting": "[7]", "value": "2 to 3", "unit": "ng/mL"}]}
